Measurements from PMC8688955 (Frontiers in Pharmacology, 2021).
Values joined by “and” are separate entries in the source; they are usually repeats but may differ in a detail not shown here. Equal entries are not always repeated. Where two headings read alike, the source gives them in different places.

What was measured:
CI-AMPARs [1] = target: T1, CI-AMPARs (Rattus norvegicus, UniProt P19491, Q607R); assay: Whole-cell patch-clamp of kainate-induced currents in isolated hippocampal CA1 pyramidal neurons; format: cell-based, Wistar rat; settings: for inhibition at 300 µM: 300 µM compound, read-out: percentage of inhibition at 300-µM concentration; for CI-AMPARs % inhibition at 100 µM: 100 µM compound; for CI-AMPARs % inhibition at 100 µM / inhibition at 100 µM: currents induced by 100 µM kainate, mean ± SD, N = 5; for CI-AMPARs % inhibition at 100 µM / inhibition at 100 µM / IC50: −80 mV; for inhibition at 100 µM: read-out: CI-AMPARs % inhibition at 100 µM, 100 µM compound; for IC50: kainate-induced currents, Hill equation; for Activity drop in the presence of cyclothiazide: 50 µM kainate
T1 construct: activity against native calcium-permeable AMPA receptors (CP-AMPARs) and calcium-impermeable AMPA receptors (CI-AMPARs); endogenous in cells; host or cells: acutely isolated pyramidal neurons from the CA1 area of Wistar rat hippocampal slices
T1 sequence (P19491 22-883 Q607R): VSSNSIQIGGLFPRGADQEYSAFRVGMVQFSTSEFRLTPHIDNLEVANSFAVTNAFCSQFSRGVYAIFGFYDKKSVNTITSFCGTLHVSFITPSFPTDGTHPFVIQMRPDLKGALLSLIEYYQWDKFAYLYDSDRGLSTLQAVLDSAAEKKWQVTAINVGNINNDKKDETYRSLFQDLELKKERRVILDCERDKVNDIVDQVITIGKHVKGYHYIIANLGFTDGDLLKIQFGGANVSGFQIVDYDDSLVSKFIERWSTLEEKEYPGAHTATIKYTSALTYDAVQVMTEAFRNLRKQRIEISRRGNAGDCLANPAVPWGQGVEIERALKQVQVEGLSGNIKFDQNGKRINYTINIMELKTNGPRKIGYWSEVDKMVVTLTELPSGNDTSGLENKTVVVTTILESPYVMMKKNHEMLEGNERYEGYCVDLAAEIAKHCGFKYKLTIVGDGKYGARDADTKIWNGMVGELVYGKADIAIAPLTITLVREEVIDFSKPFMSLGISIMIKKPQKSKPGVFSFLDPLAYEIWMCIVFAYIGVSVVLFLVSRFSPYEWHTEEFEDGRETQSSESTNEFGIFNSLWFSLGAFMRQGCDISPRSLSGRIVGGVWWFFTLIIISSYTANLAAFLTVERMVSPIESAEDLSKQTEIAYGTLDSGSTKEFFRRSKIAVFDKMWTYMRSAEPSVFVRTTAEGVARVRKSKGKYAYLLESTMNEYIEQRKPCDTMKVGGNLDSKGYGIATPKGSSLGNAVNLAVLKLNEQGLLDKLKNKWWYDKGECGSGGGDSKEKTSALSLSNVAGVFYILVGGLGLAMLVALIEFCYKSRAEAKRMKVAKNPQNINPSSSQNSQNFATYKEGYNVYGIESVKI
Method: All experimental procedures were approved by the Animal Care and Use Committee of the I.M. Sechenov Institute of Evolutionary Physiology and Biochemistry of the Russian Academy of Sciences. Wistar rats (13–19 days old) were anesthetized with sevoflurane and then decapitated. Maximum effort was made to minimize the number of animals used. Brains were removed quickly and cooled to 2–4°C in an ice bath. […] The antagonism of CI-AMPARs was studied on pyramidal neurons from the CA1 area of the hippocampus.
Series resistance of about 20 MΩ was compensated by 70–80% and monitored during experiments. Currents were recorded using an EPC-8 amplifier (HEKA Electronics, Lambrecht, Germany), filtered at 5 kHz, sampled, and stored on a personal computer. Drugs were applied using the RSC-200 perfusion system (BioLogic Science Instruments, Claix, France) under computer control. The solution exchange time in the whole-cell mode was 50–60 ms. […] The pipette solution contained (in mM) CsF 100, CsCl 40, NaCl 5, CaCl2 0.5, EGTA 5, and HEPES 10 (pH was adjusted to 7.2 with CsOH). Experiments were performed at room temperature (22–24°C). […] Lamotrigine, topiramate, levetiracetam, felbamate, carbamazepine, tiagabin, vigabatrin, zonisamide, and gabapentin were purchased from Tocris Bioscience (Bristol, United Kingdom). Perampanel was from MedChemExpress (Stockholm, Sweden). Kinetics of transient processes of more than 20-ms duration was approximated by exponential functions. Experiments were performed at −80 mV holding voltage. All experimental data are presented as mean ± SD estimated from at least four experiments. Significance of the effects was tested with paired t test. Differences were considered significant at p < 0.05. 3D structures of compounds were calculated by the ZMM software (zmmsoft.ca).

hGluA1-4 receptors = test system: hGluA1-4 receptors; parameters: method as in Fukushima et al. (2020); settings: ref Fukushima et al. (2020); cited from earlier work
CP-AMPARs = assay: Whole-cell patch-clamp of kainate-induced currents in isolated striatal giant interneurons; format: cell-based, Wistar rat; settings: for CP-AMPARs % inhibition at 100 µM: 100 µM compound, currents induced by 100 µM kainate, mean ± SD, N = 5; for CP-AMPARs % inhibition at 100 µM / IC50: −80 mV; for % block: IEM-1925, […], representative recording, Figure 3E; for % inhibition: […] IEM-1925; for IC50: read-out: IC50 CP-AMPARs, kainate-induced currents, Hill equation
Method: All experimental procedures were approved by the Animal Care and Use Committee of the I.M. Sechenov Institute of Evolutionary Physiology and Biochemistry of the Russian Academy of Sciences. Wistar rats (13–19 days old) were anesthetized with sevoflurane and then decapitated. Maximum effort was made to minimize the number of animals used. Brains were removed quickly and cooled to 2–4°C in an ice bath. […] Single neurons were freed from slices by vibrodissociation ([Vorobjev, 1991]). The antagonism of CP-AMPARs was studied on striatal giant interneurons ([Bernard et al., 1997]; [Gotz et al., 1997]), which were identified by their shape and size. […] The antagonism of CI-AMPARs was studied on pyramidal neurons from the CA1 area of the hippocampus.
Series resistance of about 20 MΩ was compensated by 70–80% and monitored during experiments. Currents were recorded using an EPC-8 amplifier (HEKA Electronics, Lambrecht, Germany), filtered at 5 kHz, sampled, and stored on a personal computer. Drugs were applied using the RSC-200 perfusion system (BioLogic Science Instruments, Claix, France) under computer control. The solution exchange time in the whole-cell mode was 50–60 ms. The extracellular solution contained (in mM) NaCl 143, KCl 5, MgCl2 2.0, CaCl2 2.5, D-glucose 18, and HEPES 10 (pH was adjusted to 7.3 with HCl). The pipette solution contained (in mM) CsF 100, CsCl 40, NaCl 5, CaCl2 0.5, EGTA 5, and HEPES 10 (pH was adjusted to 7.2 with CsOH). Experiments were performed at room temperature (22–24°C). […] Lamotrigine, topiramate, levetiracetam, felbamate, carbamazepine, tiagabin, vigabatrin, zonisamide, and gabapentin were purchased from Tocris Bioscience (Bristol, United Kingdom). Perampanel was from MedChemExpress (Stockholm, Sweden). Kinetics of transient processes of more than 20-ms duration was approximated by exponential functions. Experiments were performed at −80 mV holding voltage. All experimental data are presented as mean ± SD estimated from at least four experiments. Significance of the effects was tested with paired t test. Differences were considered significant at p < 0.05. 3D structures of compounds were calculated by the ZMM software (zmmsoft.ca).

CI-AMPARs [2] = target: T1, CI-AMPARs; parameters: method as in Barygin, 2016; settings: ref Barygin, 2016; cited from earlier work

## CCC1(c2ccccc2)C(=O)NCNC1=O [primidone]
CI-AMPARs [1]
  inhibition at 300 µM: ≤ 20%

## CCC1(c2ccccc2)C(=O)NC(=O)NC1=O [phenobarbital]
hGluA1-4 receptors
  activity against hGluA1-4 receptors: did not find significant activity

## C=CC(N)CCC(=O)O (centres unmarked) [Vigabatrin]
CI-AMPARs [1]
  CI-AMPARs % inhibition at 100 µM: 8 ± 1%
CI-AMPARs [1]; listed as vigabatrin
  CI-AMPARs % inhibition at 100 µM: ≤ 20%
CP-AMPARs
  CP-AMPARs % inhibition at 100 µM: 10 ± 3%
CP-AMPARs; listed as vigabatrin
  CP-AMPARs % inhibition at 100 µM: ≤ 20%

## COC[C@@H](NC(C)=O)C(=O)NCc1ccccc1 [lacosamide]
hGluA1-4 receptors
  activity against hGluA1-4 receptors: did not find significant activity

## O=C1NC(=O)C(Cc2ccccc2)N1 (centres unmarked) [5-benzylhydantoin]
CI-AMPARs [1]
  inhibition at 300 µM: ≤ 20%

## CC1=NN=C(c2ccc(N)cc2)c2cc3c(cc2C1)OCO3 [GYKI-52466]
CI-AMPARs [2]
  displacement of slow negative allosteric antagonist perampanel: able to displace
CI-AMPARs [1]; 200 µM GYKI-52466
  effect on the slow phase of recovery from 50 µM phenytoin: remains unchanged

## CCCC(CCC)C(=O)O [valproate]
hGluA1-4 receptors
  activity against hGluA1-4 receptors: did not find significant activity

## NS(=O)(=O)Cc1noc2ccccc12 [Zonisamide]
CI-AMPARs [1]
  CI-AMPARs % inhibition at 100 µM: 11 ± 2%
  inhibition at 100 µM: ≤ 20%
CP-AMPARs
  CP-AMPARs % inhibition at 100 µM: 11 ± 3%
CP-AMPARs; listed as zonisamide
  CP-AMPARs % inhibition at 100 µM: ≤ 20%

## NCC1(CC(=O)O)CCCCC1 [Gabapentin]
hGluA1-4 receptors
  activity against hGluA1-4 receptors: did not find significant activity
CI-AMPARs [1]
  CI-AMPARs % inhibition at 100 µM: 20 ± 6%
  inhibition at 100 µM: ≤ 20%
CP-AMPARs
  CP-AMPARs % inhibition at 100 µM: 12 ± 5%
CP-AMPARs; listed as gabapentin
  CP-AMPARs % inhibition at 100 µM: ≤ 20%

## NS(=O)(=O)c1cc2c(cc1Cl)NC(C1CC3C=CC1C3)NS2(=O)=O (centres unmarked) [Cyclothiazide]
CI-AMPARs [1]; Kainate, 50 μM +/- cyclothiazide, 100 μM, representative recording, Figure 5A
  fold potentiation: 7.4 fold
CI-AMPARs [1]; read-out: increase of the stationary current induced by 50 µM kainate, 100 µM cyclothiazide
  fold induction at 100 µM: 8 ± 2

## Cc1ccsc1C(=CCCN1CCCC(C(=O)O)C1)c1sccc1C (centres unmarked) [Tiagabin]
CI-AMPARs [1]
  CI-AMPARs % inhibition at 100 µM: 14 ± 2%
  inhibition at 100 µM: ≤ 20%
CP-AMPARs
  CP-AMPARs % inhibition at 100 µM: 10 ± 2%
CP-AMPARs; listed as tiagabin
  CP-AMPARs % inhibition at 100 µM: ≤ 20%

## NCCCCCNC1(c2ccccc2)CCCCC1 [IEM-1925]
CI-AMPARs [1]
  More active against CI-AMPARs: dramatically more active against CP-AMPARs and No
  IC50: 180 ± 30 µM
CP-AMPARs; 6 µM IEM-1925, double-pulse protocol, n = 4
  slow component of the response to testing kainate application in the trapping protocol: 1,800 ± 400 ms
CP-AMPARs; 50 vs 500 µM kainate, striatal CP-AMPARs
  Activity drop at high (500 µM) kainate concentration: No
CP-AMPARs; Ka 50 μM
  % block: 49%
CP-AMPARs; Ka 500 μM
  % block: 57%
CP-AMPARs; 50 µM kainate
  % inhibition: 48 ± 3%
CP-AMPARs; 500 µM kainate
  % inhibition: 55 ± 5%
CP-AMPARs; coapplication with kainate vs preapplication without kainate, striatal CP-AMPARs
  Difference in the % of inhibition in coapplication and preapplication protocols: inhibited only open channels and Yes
CP-AMPARs; double-pulse protocol, 30-s pause, striatal giant interneuron
  Trap in kainate 100 µM: Yes
CP-AMPARs; double-pulse protocol, striatal giant interneuron
  Trap in kainate 500 µM: Yes
CP-AMPARs
  IC50: 1.3 ± 0.4 µM

## NC(=O)OCC(COC(N)=O)c1ccccc1 [Felbamate]
CI-AMPARs [1]
  CI-AMPARs % inhibition at 100 µM: 16 ± 4%
  inhibition at 100 µM: ≤ 20%
CP-AMPARs
  CP-AMPARs % inhibition at 100 µM: 10 ± 4%
CP-AMPARs; listed as felbamate
  CP-AMPARs % inhibition at 100 µM: ≤ 20%

## NC(=O)N1c2ccccc2C=Cc2ccccc21 [Carbamazepine]
hGluA1-4 receptors
  activity against hGluA1-4 receptors: did not find significant activity
CI-AMPARs [1]
  CI-AMPARs % inhibition at 100 µM: 11 ± 3%
  inhibition at 100 µM: ≤ 20%
CP-AMPARs
  CP-AMPARs % inhibition at 100 µM: 15 ± 4%
CP-AMPARs; listed as carbamazepine
  CP-AMPARs % inhibition at 100 µM: ≤ 20%

## CCCC(C)C1(CC)C(=O)NC(=O)NC1=O (centres unmarked) [Pentobarbital]
CI-AMPARs [1]
  % block: 56% and 42%
  Activity drop at high (500 µM) kainate concentration: more active in the case of lower kainate concentration and Yes
  More active against CI-AMPARs: Yes
  IC50: 14 ± 3 µM
CI-AMPARs [1]; 14 µM pentobarbital
  effect on maximal response to kainate: decreased the maximal response to kainate
CI-AMPARs [1]; 100 µM cyclothiazide
  Activity drop in the presence of cyclothiazide: Yes
CI-AMPARs [1]; 100 µM cyclothiazide, listed as pentobarbital
  Activity drop in the presence of cyclothiazide: significantly attenuated in the presence of cyclothiazide
CI-AMPARs [1]; 50 vs 500 µM kainate
  decrease in the % of inhibition with the increase in agonist concentration: 10–15%
CI-AMPARs [1]; Pentobarbital, 50 μM, Kainate, 50 μM + cyclothiazide, 100 μM, representative recording, Figure 5E
  % block: 27%
CI-AMPARs [1]; Pentobarbital, 50 μM, Kainate, representative recording, Figure 5D
  % block: 75%
CI-AMPARs [1]; coapplication with kainate vs preapplication without kainate
  Difference in the % of inhibition in coapplication and preapplication protocols: more active in the coapplication protocol and Yes
CI-AMPARs [1]; double-pulse protocol, 30-s pause
  Trap in kainate 100 µM: Yes
CI-AMPARs [1]; pH 7.4 vs 9.0
  pH-dependence: Yes
CI-AMPARs [1]; pentobarbital 30 μM, pH 7.4, Kainate, 100 μM, representative recording, Figure 10B
  % block: 65%
CI-AMPARs [1]; pentobarbital 30 μM, pH 9.0, Kainate, 100 μM, representative recording, Figure 10B
  % block: 27%
CP-AMPARs
  IC50: 80 ± 13 µM

## CCC1(C)CC(=O)NC1=O (centres unmarked) [ethosuximide]
CI-AMPARs [1]
  inhibition at 300 µM: ≤ 20%

## O=C1CNC(=O)N1 [hydantoin]
CI-AMPARs [1]
  inhibition at 300 µM: ≤ 20%
